The text below walks through data of patent publication US6344178B1, “Method for the preparation of facial metal tricarbonyl compounds and their use in the labelling of biologically active substrates” (Mallinckrodt Inc., priority 1997, dated 2002).

The test has as its system coloncarcinoma cells HT29. Briefly: Kd on coloncarcinoma cells HT29. Format: binding. As to the method:
0.9 ml of [^99mTc(OH2)3(CO)3]^+ as prepared in example 1 is mixed with 0.1 ml of 10^−3M His-Neurotensin(8-13) (HRRPYIIL) and kept in a sealed tube at 75° C. for one hour. After this time the reaction mixture is cooled to room temperature. As evident from reversed phase column HPLC the yield is >95%. The Kd of this compound on coloncarcinoma cells HT29 is 1.0 nM.

Usually Kd stands for the equilibrium constant for the complex coming apart. In the case of “HRRPYIIL [His-Neurotensin(8-13), His-Neurotensin(8-13) (HRRPYIIL) labelled with [99mTc(OH2)3(CO)3]+]”, binding was characterised by a dissociation constant (Kd) of 1 nM.
